Results as given in patent publication US9623031B2, “Compositions, methods and kits for treating cancer” (priority 2011, dated 2017).
Entries after “also recorded” stand apart in the source; their conditions may differ.

Assays:
[1] = tested on: Human unfractionated bone marrow cells
Protocol: Human unfractionated bone marrow cells (5×10^5 per well) were plated in methylcellulose complete media containing IL-3, GM-CSF, G-CSF, SCF and Epo supplemented with the indicated concentrations of drugs. Total colonies were counted after 12 days.

NF-κB = NF-κB activation in sorted BCR-ABL+ LSCs (EMSA, Western blot); type: cell-based, mouse; details: 25 nM, 0-6 h
Protocol: The effect of Δ^12-PGJ3 on NF-κB and PPAPγ was examined. RAW264.7 macrophages were pretreated with DMSO, Δ^12-PGJ3 at 0.25, or 1.0 μM and subsequently stimulated with 100 ng/mL E. coli LPS for 4 h. The nuclear extracts were prepared and the binding of NΦκB to a ^32P-labeled consensus double stranded oligonucleotide probe was examined using gel shift analysis. NS=non-specific band. Lanes 1-5 represent untreated, LPS alone, DMSO+LPS, Δ^12-PGJ3 (0.25 μM)+LPS, and Δ^12-PGJ3 (1 μM)+LPS, respectively. BCR-ABL LSCs were sorted from spleens, plated, and treated with PBS, 25 nM Δ^12-PGJ3, or 9,10-dihydro 15d-PGJ2 for 0, 2 or 6 h. The cells were harvested and nuclear extracts were prepared using standard techniques. Ten μg of nuclear protein was used from each sample for the gel-shift reaction. As a positive control for NF-κB, nuclear extract from LPS-treated murine (RAW264.7) macrophages was used. Anti-p50 Ab was used with this positive control for a supershift, and excess ‘cold’ probe was used with the positive control as a ‘cold competitor’. A Western blot analysis was performed of the above-mentioned nuclear extracts from BCR-ABL LSCs treated with PBS, Δ^12-PGJ3 or 9,10-dihydro-15d-PGJ2 for various time periods (0-6 h) probed with anti-p65 and anti-β-actin antibodies. […]

residual FV-LSCs = test: Secondary transplants from treated FV-LSC mice into BALB/c-Stk−/− recipients; type: in vivo, mouse; details: donor cells from treated FV-LSC transplanted mice
Protocol: (§1) Secondary transplants to test for residual LSCs after treatment with Δ^12-PGJ3: For the CML model, B6.SJLPtprca Pep3b/BoyJ (CD45.1^+) mice were treated with 5-FU and bone marrow cells enriched in cycling HSCs were isolated followed by infection with MIGR-BCR-ABL virus or control MSCV-GFP virus as described above. The cells were transplanted into C57BL/6 (CD45.2) recipient mice as mentioned earlier. The mice were treated with Δ^12-PGJ3 or vehicle control as indicated. Two weeks after treatment, spleen cells were isolated and transplanted into irradiated secondary C57BL/6 (CD45.2) recipients as described above. Two weeks after secondary transplant, mice were analyzed for WBC counts, splenomegaly and the presence of GFP^+ or CD45.1 donor cells in the bone marrow and spleen by flow cytometry. Secondary transplants were also done with FV infected mice treated with Δ^12-PGJ3 or vehicle control. BALB/c mice were infected with Friend virus as described above. The mice were treated with Δ^12-PGJ3 or vehicle control as indicated. Two weeks after treatment, spleen cells isolated from FV-infected mice and transplanted into BALB/c-Stk^−/− recipient mice (1×10^5 cells per mouse). Five weeks post transplant, the mice with secondary transplants were tested for WBC counts, splenomegaly and for the presence of M34^+Kit^+Sca1^+FV-LSCs by flow cytometry.

[2] = tested on: BCR-ABL^+LSC (Kit^+Sca1^+Lin^−GFP^+); test: Apoptosis of BCR-ABL+ LSCs treated ex vivo (annexin V, flow cytometry); type: cell-based, mouse
Protocol: Apoptosis. Apoptosis of LSCs was performed using annexin V as described below in Supplementary Information and Methods.
Apoptosis. The LSCs were diluted in DMEM, resuspended using a 16-gauge needle, and collected by centrifugation. 1×10^5 cells were resuspended in 200 μl of binding buffer (0.1 M HEPES with 1.4 M NaCl, 25 mM CaCl2, pH 7.4). Annexin V FITC (BD Biosciences) was incubated with cells for 15 min on ice followed by flow cytometric analysis.
The ability of CyPGs derived from arachidonic acid (2 series PGs) to induce apoptosis was tested in cultures of LSCs from FV infected mice and in the murine CML model. […] 15d-PGJ2 is known as a PPAPγ agonist. […] In FIG. 7C Δ^12-PGJ3, 15d-PGJ2 or 9,10-dihydro-15d-PGJ2 are tested for their ability to induce apoptosis in a murine CML model. […] The cells were stained with annexin V-FITC and analyzed by flow cytometry. Representative of N=4. […] Inset: Effect of rosiglitazone on the apoptosis of LSC. Rosiglitazone (0.1-2.0 μM) was incubated with LSC in the culture media for 36 h as described earlier and the cells were subjected to annexin-V staining followed by flow cytometry. […] LSC were treated ex vivo with indicated concentrations of each compound for 36 h.
Following 36 h of incubation, apoptotic cells were quantified by annexin V staining. […] In a related study to address if Δ^12-PGJ3 treatment would cause any degranulation of granulocytes, a rat basophilic cell line ([…]) was treated with 100 nM Δ^12-PGJ3 and the degranulation was followed by quantitating the release of histamine and a second marker of degranulation, hexoseaminidase.
In this experiment, 500,000 BCR-ABL+ LSCs were plated in a 24-well plate followed and were treated with 25 nM PGD2Me or 100 nM ZK118182 (both are agonists of DP) for 24 h. GFP^+ cells were analyzed by flow cytometry. These agonists were purchased from Cayman Chemicals, MI.

residual BCR-ABL LSCs = test: Secondary transplants from treated BCR-ABL mice (residual LSCs); type: in vivo, mouse
Protocol: as §1

[3] = tested on: FV-LSCs (M34^+Kit^+Sca1^+); test: Apoptosis of FV-LSCs treated ex vivo (annexin V, flow cytometry); type: cell-based, mouse; details: 36 h
Protocol: On day 14 after infection, spleens were isolated and a single cell suspension of spleen cells was generated. The cells were filtered through a 70 μm sterile filter and flow-through cells were resuspended in RBC lysis buffer followed by centrifugation. Leukemia stem cells were isolated by FACS. Spleen cells were labeled with anti-Kit, Sca1 (BioLegend, San Diego, Calif.) and M34 antibodies. […] As indicated M34^+Kit^+Sca1^+ cells were cultured in Methocult media (Stem Cell Technologies Vancouver BC) M3334 supplemented with 200 ng/ml Sonic Hedgehog (Shh), 15 ng/ml bone morphogenetic protein-4 (BMP4) (both from R&D Systems Minneapolis, Minn.), and 50 ng/ml stem cell factor (SCF; Peprotech).
The cells were stained with annexin V-FITC and analyzed by flow cytometry. […] Means±s.e.m. *P<0.001 compared to vehicle (PBS). […] Inset: Effect of rosiglitazone on the apoptosis of LSC. Rosiglitazone (0.1-2.0 μM) was incubated with LSC in the culture media for 36 h as described earlier and the cells were subjected to annexin-V staining followed by flow cytometry. […] LSC were treated ex vivo with indicated concentrations of each compound for 36 h. Mean±s.e.m. shown *P<0.001.

[4] = tested on: FV-LSCs transplanted into BALB/c-Stk^−/− mice
Protocol: Transplant of FV-LSCs into BALB/c-Stk^−/− mice: FV-LSCs were generated as described above. 2.5×10^5 FV-LSCs were transplanted into BALB/c-Stk^−/− mice by retro-orbital injection. Six weeks after transplant the mice were treated with CyPGs or vehicle control as indicated in the text.
Treatment of Mice with PGs: Mice with FV-induced erythroleukemia or MIGR-BCR-ABL induced CML were treated on the indicated days with CyPGs. Mice were treated with a daily intraperitoneal injection of Δ^12-PGJ3 (0.01-0.1 mg/kg), 15d-PGJ2 (0.1 mg/kg), or 9,10-dihydro-15d-PGJ2 (0.1 mg/kg) for 7 days. All three compounds were formulated with hydroxypropyl-β-cyclodextrin (30% w/v; Sigma; vehicle control).
Stk^−/− mice are resistant to Friend virus infection so the leukemia developed by the transplanted mice is result of the transplanted LSCs and not FV infection. […] LSCs sorted from the spleens of FV-infected mice were transplanted into Stk^−/− mice (on a Balb/c background). After 6 weeks such mice were treated daily for 1 week with vehicle (hydroxypropyl-β-cyclodextrin), 15d-PGJ2 (0.05 mg/kg), or 9,10-dihydro-15d-PGJ2 (0.05 mg/kg) by intraperitoneal injection. The mice were sacrificed 51 days post LSC transplantation for analysis. An analysis of spleens of mice comparing splenomegaly in vehicle, 15d-PGJ2, or 9,10-dihydro-15d-PGJ2 treated transplanted mice was performed. Spleen weight compared to control (untransplanted mice) after treatment and WBC counts in the peripheral blood of the mice after treatment were examined, and a flow cytometric analysis of the spleen of untransplanted and LSC transplanted mice after treatment was performed. All data were mean±s.e.m. *p<0.05 compared to control or 9,10-dihydro-15d-PGJ2 treated groups. N=5 per group.

Survivin = Survivin expression in human AML sample (RT-PCR); type: cell-based; details: 6 h
Protocol: Survivin expression in the human AML sample post Δ^12-PGJ3 treatments was examined. Total RNA was isolated from AML cells with indicated treatments (for 6 h) using Trizol (Invitrogen) cDNA was generated using Superscript II (Invitrogen) and cDNA were quantified by RT-PCR using SYBR green PCR master mix and primers that amplify a 76 nt PCR product. A Taqman probe for GAPDH (Applied biosystems) was used.

CC/C=C\C[C@H](O)C/C=C1/C(=O)C=C[C@@H]1C/C=C\CCCC(=O)O [Δ^12-PGJ3, Δ^12-prostaglandin J3]
total colonies of human bone marrow cells [1]: had no effect
NF-κB activation, EMSA and Western blot of nuclear extracts (NF-κB): lack of activation of NF-κB
splenomegaly, WBC counts and LSCs in secondary recipients (residual FV-LSCs): failed to develop splenomegaly or high WBC counts and lacked LSCs in their spleens
apoptosis of BCR-ABL+LSCs ([2]; 25 nM, annexin V, caspase 3 and caspase 8 activation): significant increase in apoptosis; also recorded: highly susceptible to apoptosis
apoptosis of Sca1+GFP+Kit+ BCR-ABL+LSC from spleen ([2]; 25-1000 nM, 36 h): significantly increased their apoptosis
IC50 ([2]; Kit+Sca1+Lin−GFP+ LSCs from spleen of BCR-ABL mice, ex vivo 36 h, annexin V): ~12 nM
Kit+Sca1+GFP+ LSCs in spleen of secondary recipients (residual BCR-ABL LSCs; donor cells from treated mice): lacked Kit^+Sca1^+GFP^+ cells
splenomegaly and WBC counts in secondary recipients (residual BCR-ABL LSCs; donor spleen cells from treated mice, two weeks after secondary transplant): failed to develop splenomegaly or high WBC counts
increase in apoptosis of FV-LSCs ([3]; 25 nM): ~75%
apoptosis of FV-LSCs, dose response ([3]; annexin V): identical effect
leukocyte counts ([4]; 0.025 mg/kg and 0.05 mg/kg, 1 week): concomitant decrease in leukocyte counts
hematocrit, WBC counts and reticulocyte counts ([4]; FV-induced leukemia, FIG. 3C): significantly decreased
LSCs (M34+Sca1+Kit+) in the spleen ([4]; flow cytometry after 1 week i.p. treatment): complete ablation
hematological parameters (complete blood counts) versus untransplanted control mice ([4]; mouse, in vivo): does not adversely affect hematological parameters
pChk2 levels in total spleen extracts ([4]; mouse, in vivo): increase in the levels of pChk2
splenomegaly ([4]; Δ^12-PGJ3 0.025 and 0.05 mg/kg, comparators 0.05 mg/kg, i.p. 1 week): significantly decreased splenomegaly
survivin expression (Survivin): decreases the expression of survivin
